The values below come from publication PMC7432475, “β-Carbolines in Experiments on Laboratory Animals” (International Journal of Molecular Sciences, 2020).

Data set [1] relates to primary mesencephalic dopaminergic cell culture derived from embryonic mice. The following applies: cited from earlier work.
In data set [2] the test system is Artn, Bdnf, Egln1, Tgfb2, and Ncam1. Set-up: method as in PMID 32285253. The following applies: cited from earlier work.
Data set [3] relates to FAS, Gadd45a, Hspb1; Cxcl9, Irf1, Fasl, Icam1, Tnf, Vcam1. Further details: method as in PMID 17913302. The following applies: cited from earlier work.
A further data set concerns α-synuclein. Set-up: method as in PMID 20374418. The following applies: primary dopaminergic cell cultures; cited from earlier work.
A further data set relates to caspase-3. Further details: method as in PMID 17913302. The following applies: primary mesencephalic dopaminergic cell culture from embryonic mice; cited from earlier work.
For data set [4], the system named is rats. Set-up: method as in PMID 22380576. The following applies: compared with controls; cited from earlier work.
The subject of data set [5] is male Sprague Dawley rats. The data set is classed as in vivo. The following applies: stage 1; rats that received the lowest amounts of H and NH.
Another data set relates to KB. Further details: method as in PMID 10612592. The following applies: cited from earlier work.
For a further data set, the system named is IA9. Set-up: method as in PMID 10612592. The following applies: cited from earlier work.
Another data set deals with AG20445 cells. Nature of the data set: Apoptosis/necrosis assay (Casp 3/7-FITC/7-AAD flow cytometry), AG20445. The data set is classed as cell-based, human. The following applies: 24 h, 5, 10, and 25 µM (Figure S2b). The protocol: (§1) Normal human lung fibroblasts (MRC-5) were purchased from ECACC, and human skin fibroblasts isolated from a person with Parkinson’s disease (AG20445) were purchased from the Coriell Institute. The cells were cultured in Eagle’s Minimum Essential Medium (EMEM, Corning) supplemented with antibiotics (Penicillin-Streptomycin Solution (ATCC) and 10% or 15% FBS (Sigma-Aldrich), respectively. Both cell lines were cultured at 37 °C, with the addition of 5% CO2 to the atmosphere.
(§2) The apoptosis/necrosis assay was performed by double staining with CellEvent Caspase 3/7-FITC (Thermo Fisher Scientific) and 7-aminoactinomycin D (BD Pharmigen) fluorescent dyes. Briefly, the cells (4 × 10^5) were seeded onto six-well plates and incubated until 70–80% confluency. On the next day, the cells were treated with β-carbolines in a final concentration of 5, 10, and 25 µM. Afterward, the cells were detached with trypsin (Thermo Fisher Scientific), washed twice with Dulbecco’s Phosphate Buffered Saline (Thermo Fisher Scientific), and stained with fluorescent dyes for 30 min at 37 °C in the dark, in line with the manufacturer’s protocol. Cells were analyzed immediately with 488 nm excitation using an Accuri C6 flow cytometer (Becton Dickinson).
Background: Flow cytometry measures light scatter and fluorescence of single cells or particles in a stream.

The test system of the next data set is A549. Set-up: method as in PMID 10612592. The following applies: cited from earlier work.
Data set [6] concerns yeast and mammalian cells. Further details: method as in PMID 17545209. The following applies: cited from earlier work.
For a further data set, the system named is monoamine oxidase. Further details: method as in PMID 8957221. The following applies: cited from earlier work.
The next data set relates to AG20445 (PD cells). Nature of the data set: Real-time cell proliferation analysis by xCELLigence system, AG20445. Format: cell-based, human. The following applies: 24 h after treatment, range of 1–50 µM. The protocol: as §1
(§3) Cell proliferation analysis was performed using an xCELLigence system (Roche). The cells were seeded in sixteen-well E-plates (Roche) at a density of 7.5 × 10^3 per well. After 24 h, the cells were treated with H, NH, and both in final concentrations of 1, 5, 10, 25, 50, and 100 μM. The control cells were cultured in the supplemented medium only. The real-time proliferation of the cells was estimated based on impedance measurement, expressed as a Cell Index (CI) value. The CI was monitored at 30 min intervals from the time of plating for six days.

The next data set relates to SK-MEL-2. Further details: method as in PMID 10612592. The following applies: cited from earlier work.
The subject of data set [7] is male Sprague Dawley rats. The data set can be described thus: Battery of behavioral tests, stage 1. The data set is classed as in vivo. The following applies: individual chemical standards added to the diet. The protocol:
The experiment was conducted in the animal housing facility at the Institute of Human Nutrition and Dietetics, Poznań University of Life Sciences, under conditions of natural light and with the temperature maintained during the experiment at 19–22 °C, and with a relative humidity of 55–60%. Seventeen-month-old male Sprague Dawley rats originating from a Charles River Laboratories farm were used in the experiment. The age of the rats corresponded to 51 years of human life. For the first ten days of the experiment (the adaptation period), the rats were fed ad libitum with a standard laboratory diet and water. The experiment was conducted in two stages. […] The food consumption of the individual rats was monitored daily by measuring the difference between the amount of diet supplied each day and the amount of diet remaining. Feces were collected for ten days in the seventh week of the experiment, and water content, protein, fat, dietary fiber, and ash were determined using standard analytical methods. Body mass was measured every seven days using an electronic balance. […]
A classic labyrinth (110 × 65 cm) was used, with corridors about […], located on the table raised 50 cm from the ground. […] The time needed to complete the route between the two points of departure and arrival was measured. […]

In the next data set the test system is mice. Set-up: method as in PMID 16183262. The following applies: H 5–15 mg/kg i.p., NH 2.5–10 mg/kg i.p.; cited from earlier work.
In another data set the test system is CAKI-1. Further details: method as in PMID 10612592. The following applies: cited from earlier work.
In data set [8] the test system is rats. Set-up: method as in PMID 23107644. The following applies: the two higher doses (5.0 mg/kg and 7.5 mg/kg); cited from earlier work.
The test system of another data set is HEL. Further details: method as in PMID 10612592. The following applies: cited from earlier work.
The conditions of data set [9]: for share of the carboline taken in that was found in the blood: from average body mass, feed consumption and concentration in the feed; for increase of the carboline level in plasma versus control diet / Harman (ng/mL) in animal blood: stage I; for increase of the carboline level in plasma versus control diet: at the greatest addition to the diet; for Harman (ng/mL) in animal blood: fourteen weeks, n = 6.

For the next data set, the system named is U-87-MG. Set-up: method as in PMID 10612592. The following applies: cited from earlier work.
The test system of another data set is MCF-7. Further details: method as in PMID 10612592. The following applies: cited from earlier work.
For data set [10], the system named is MRC-5 cells. The data set can be described thus: Real-time cell proliferation analysis by xCELLigence system, MRC-5. The following applies: for IC50: Homo sapiens, MRC5; for cell proliferation rate compared to the control: 24 h after administration, 1–25 µM; for cytotoxic effect on the MRC-5 cell line: low concentration range (1–25 µM). The data set is classed as cell-based, human. The protocol:
as §1, §3

Data set [11] deals with MRC-5 cells. Nature of the data set: Apoptosis/necrosis assay (Casp 3/7-FITC/7-AAD flow cytometry), MRC-5. The data set is classed as cell-based, human. The following applies: 24 h, 5, 10, and 25 µM (Figure 2c). The protocol:
as §1, §2

For data set [12] the following is noted: in 100g, stage I.
[13] abbreviates: corresponds to ~50 µM, read-out: concentration giving 50% decrease in MRC-5 cell viability, converted.
Setting [14] is: xCELLigence, read-out: concentration giving 50% decrease in MRC-5 cell viability.

Values after ≈ are worked out from the molar mass of the structure shown. Like-named read-outs stand apart in the source and are kept apart here.

Take `Cn1c2ccccc2c2cc[n+](C)cc21` [2,9-dimethyl-BC]: in [1], the ATP content result is recorded as “decreased”, the free radical production result is reported as “increased”, the mitochondrial membrane potential entry was “decreased” and the respiratory activity result is reported as “decreased”. The “toxic effects on dopaminergic neurons and other cell constituents” value in [1] (primary dopaminergic culture) is listed as “highly toxic effects”.

Take `Cn1c2ccccc2c2ccncc21` [9-me-BC, 9-methyl-β-carboline]: in data set [2], the “gene expression of neurotrophic factors like Artn, Bdnf, Egln1, Tgfb2, and Ncam1” value is reported as “stimulated”. Moreover, in [3], the “expression of inflammation-related genes like Cxcl9, Irf1, Fasl, Icam1, Tnf, and Vcam1” value is recorded as “reduced”; the “expression of proteins in apoptosis-relevant pathways like FAS, Gadd45a, and Hspb1” value is given as “downregulated”. In addition, the “content of α-synuclein” value in the data set with α-synuclein is given as “lowered”. For the same compound, the caspase-3 activity result in the data set on caspase-3 is listed as “decrease of caspase-3 activity”. Further, the “number of dopaminergic neurons” value in data set [1] (concentration-dependent manner) was “capable of increasing the number of dopaminergic neurons”. Moreover, the “number of necrotic cells” value in [1] (primary mesencephalic dopaminergic cell culture from embryonic mice) is “reduced the number of necrotic cells”. For the same compound, in the data set with rats [4], the “acquisition in a hippocampus-dependent task” value is “significantly accelerated acquisition”.

`Cc1nccc2c1[nH]c1ccccc12` [H, harman]: in the data set with male Sprague Dawley rats [5], the “Porsolt test: mobility” value was “more mobile than the control animals”. Further, the ED50 with KB is recorded as 8.9 µg/mL (≈ 48.8 µM); in the data set with IA9 it was 6.1 µg/mL (≈ 33.5 µM); with A549, 9.3 µg/mL (≈ 51 µM); in the data set with SK-MEL-2, greater than 20 µg/mL; in the data set on CAKI-1, 8.0 µg/mL (≈ 43.9 µM); in the data set with HEL, 9.8 µg/mL (≈ 53.8 µM). Besides, the ED50 in the data set on U-87-MG and in the data set with MCF-7 was 19.0 µg/mL (≈ 104 µM) each time. Further, the induction of apoptosis result in the data set on AG20445 cells and in the data set on MRC-5 cells [11] was “do not induce apoptosis” in each case. For the same compound, the “protective effect against H2O2 and paraquat oxidative agents” value in data set [6] is reported as “significant protective effect”. In addition, the monoamine oxidase inhibition entry in the data set with monoamine oxidase is on record as “potent monoamine oxidase inhibitor”. Moreover, in the data set on AG20445 (PD cells), the “CI values (proliferation)” value is “significant increase in CI values”. Further, the “effect on the animals' behavior” value in the data set on male Sprague Dawley rats [7] is “did not produce a very marked effect”. For the same compound, the “antidepressant action on mice” value in the data set with mice is reported as “positive effects”. The “errors in working memory” value in the data set with rats [8] was “significantly fewer errors in working memory”. For the same compound, the “share of the carboline taken in that was found in the blood” value in [9] is on record as “about 0.15%”. Besides, in data set [9], the “increase of the carboline level in plasma versus control diet” value is “increased by a factor of about four”. The “Harman (ng/mL) in animal blood” value came out at 0.038 ng/mL in data set [9] (group H1 = 10 µg H/kg of exp. diet), 0.052 ng/mL in data set [9] (group H2 = 15 µg H/kg of exp. diet) and 0.084 ng/mL in data set [9] (group H3 = 20 µg H/kg of exp. diet). Besides, the IC50 in the data set with MRC-5 cells [10] (setting [13]) was 9.11 µg/mL; with MRC-5 cells [10] (setting [14]), roughly 50 µM. Besides, the “cell proliferation rate compared to the control” value in the data set on MRC-5 cells [10] (MRC-5) is on record as “significant increase in the cell proliferation rate”. For the same compound, in the data set on MRC-5 cells [10], the “cytotoxic effect on the MRC-5 cell line” value is listed as “neither H nor NH showed any cytotoxic effect”.

`c1ccc2c(c1)[nH]c1cnccc12` [NH, norharman]: the “Porsolt test: mobility” value in the data set on male Sprague Dawley rats [5] was “more mobile than the control animals”. Also, the induction of apoptosis result with AG20445 cells and in the data set with MRC-5 cells [11] was “do not induce apoptosis” in each case. Moreover, the “IDF [g] (insoluble dietary fiber) in feces” value in data set [12] (group NH1 (8 µg NH/kg diet)) was 55,36 g; in data set [12] (group NH2 (12 µg NH/kg diet)), 54,46 g; in data set [12] (group NH3 (16 µg NH/kg diet)), 53,97 g. The “SDF [g] (soluble dietary fiber) in feces” value in data set [12] (group NH1 (8 µg NH/kg diet)) is reported as 0,04 g; in data set [12] (group NH2 (12 µg NH/kg diet)), 0,06 g; in [12] (group NH3 (16 µg NH/kg diet)) it was 0,07 g. For the same compound, the “CI values (proliferation)” value in the data set with AG20445 (PD cells) was “significant increase in CI values”. Moreover, the “effect on the animals' behavior” value in the data set with male Sprague Dawley rats [7] is recorded as “did not produce a very marked effect”. Also, in the data set with mice, the “antidepressant action on mice” value is “positive effects”. Also, the “share of the carboline taken in that was found in the blood” value in data set [9] is given as “about 0.5%”. Also, in [9], the “increase of the carboline level in plasma versus control diet” value was “increased two-fold”. Further, the IC50 in the data set with MRC-5 cells [10] (setting [13]) is 8.41 µg/mL; with MRC-5 cells [10] (setting [14]), roughly 50 µM. Besides, in the data set on MRC-5 cells [10] (MRC-5), the “cell proliferation rate compared to the control” value is listed as “significant increase in the cell proliferation rate”. Further, the “proliferation rate (ranking)” value in the data set with MRC-5 cells [10] (MRC-5, final concentrations of 1, 5, and 10 μM) is reported as “greatest proliferation rate”. Further, the “cytotoxic effect on the MRC-5 cell line” value with MRC-5 cells [10] is “neither H nor NH showed any cytotoxic effect”.
